In PMC9304322, “Targeting retinoic acid receptor alpha-corepressor interaction activates chaperone-mediated autophagy and protects against retinal degeneration” (Nature Communications, 2022):
Several values for one entry are separate records, joined by “and”; a condition that tells them apart may be missing. Equal entries are not always repeated.

Columns and labels:
[1] = system: CMA network components in NIH3T3 cells; test: qPCR of CMA network components and CMA activation score;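 for AKT1 mRNA level: fold of untreated cells after 20 µM for 24 h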;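 for AKT2 mRNA level: fold of untreated cells after 20 µM for 24 h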;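 for CTSA mRNA level: fold of untreated cells after 20 µM for 24 h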;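 for HSC70 mRNA level: fold of untreated cells after 20 µM for 24 h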;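 for HSP40 mRNA level: fold of untreated cells after 20 µM for 24 h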;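 for HSP90AA1 mRNA level: fold of untreated cells after 20 µM for 24 h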;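 for HSP90AB1 mRNA level: fold of untreated cells after 20 µM for 24 h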;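 for LAMP2A mRNA level: fold of untreated cells after 20 µM for 24 h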;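 for NCOR1 mRNA level: fold of untreated cells after 20 µM for 24 h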;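 for NFATC1 mRNA level: fold of untreated cells after 20 µM for 24 h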;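 for NFE2L2 mRNA level: fold of untreated cells after 20 µM for 24 h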;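 for PHLPP1 mRNA level: fold of untreated cells after 20 µM for 24 h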;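 for RAB11A mRNA level: fold of untreated cells after 20 µM for 24 h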;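 for RAC1 mRNA level: fold of untreated cells after 20 µM for 24 h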;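 for RARa mRNA level: fold of untreated cells after 20 µM for 24 h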; format: cell-based, mouse; parameters: LAMP2A mRNA level / HSP90AB1 mRNA level / HSP40 mRNA level / RAC1 mRNA level / AKT1 mRNA level / AKT2 mRNA level / CTSA mRNA level / NFATC1 mRNA level / HSC70 mRNA level / NCOR1 mRNA level / NFE2L2 mRNA level / RAB11A mRNA level / RARa mRNA level / HSP90AA1 mRNA level / EEF1A1 mRNA level / RICTOR mRNA level: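 fold of untreated cells after 20 µM for 24 h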; key to CMA activation score: weighted (LAMP-2A ×2), directed (±1) average of CMA network expression; details: for AKT1 mRNA level / AKT2 mRNA level / CTSA mRNA level / EEF1A1 mRNA level / HSC70 mRNA level / HSP40 mRNA level / HSP90AA1 mRNA level / HSP90AB1 mRNA level / LAMP2A mRNA level / NCOR1 mRNA level / NFATC1 mRNA level / NFE2L2 mRNA level / PHLPP1 mRNA level / RAB11A mRNA level / RAC1 mRNA level / RARa mRNA level / RICTOR mRNA level: Fig. 2d (left), one sample t test; for AKT1 mRNA level / AKT2 mRNA level / CTSA mRNA level / EEF1A1 mRNA level / HSC70 mRNA level / HSP40 mRNA level / HSP90AA1 mRNA level / HSP90AB1 mRNA level / LAMP2A mRNA level / NCOR1 mRNA level / NFATC1 mRNA level / NFE2L2 mRNA level / PHLPP1 mRNA level / RAB11A mRNA level / RAC1 mRNA level / RARa mRNA level / RICTOR mRNA level / CMA activation score: individual replicate values; for CMA activation score: Fig. 2d (right); for predicted CMA score compared to AR7: NIH3T3, 20μM for 24 h
Procedure: RNA was extracted from individual retinas or tissue sections (brain, liver). Total RNA from retinas was extracted using TRIzol Reagent (Invitrogen, # 15596-018), and reverse transcription was performed using the High-Capacity cDNA Reverse Transcription Kit (Applied Biosystems, # 4374966) according to the manufacturer’s instructions. Quantitative real-time PCR was performed in a Light Cycler 480 Instrument (Roche) with Taqman LightCycler 480 probes Master Mix (Roche, #4887301001) using Taqman assays (Life Technologies). For cells in culture, RNA was extracted using RNeasy Plus Mini Kit (Qiagen, #74034), and reverse transcription was performed using Superscript III (Invitrogen, #18080051). Quantitative RT-PCR analysis were performed using Power SYBR Green PCR Master Mix (Applied Biosystems, #4368708) on a StepOne Plus Real-Time PCR System (Applied Biosystems). Mm01184405_m1 probe (Thermofisher) was used for rhodopsin and the sequence of all the other probes used for qPCR is included in Supplementary Table 2.
CMA index[14] was calculated using data set from[23]–[25]. Briefly, each element of the CMA network[13] has attributed a weight. As LAMP-2A is the rate-limiting component of CMA, it was given a weight of 2. Every other element received a weight of 1. Then, every element was attributed direction score that is +1 or −1 based on the known effect of a given element on CMA activity. The score was then calculated as the weighted/ directed average of expression counts of every element of the CMA network.

[2] = system: primary human fibroblast expressing the KFERQ-PS-Dendra reporter; test: CMA activity, KFERQ-PS-Dendra reporter in primary human fibroblasts; format: cell-based; parameters: key to CMA activity, mean (Fig. S2c): puncta per cell; details: for CMA activation in human cells: in words
Procedure: Cells were transduced with lentivirus carrying the KFERQ-PS-Dendra reporter as before. Cells were photoactivated by exposure to a 3.5 mA (current constant) light emitting diode (LED: Norlux, 405 nm) for 3 min and then plated in glass-bottom 96 well plates. At the desired times, cells were fixed with 4% PFA and imaged using high-content microscopy (Operetta system, Perkin Elmer). Images were quantified using the manufacturer’s software in a minimum of 1,200 cells in 9 independent fields per well. […] This was particularly important in the case of primary human cells where the efficiency of transduction was ~65%. To avoid confounding effects for drug-induced changes in cell volume or adherence to the plate that could bring a fraction of the cells per field outside of focus, we set a threshold to count only […] that have at least 1/10 of the average number of […] detected in the untreated wells for each cell type (3–4 puncta/cell in the case of NIH3T3 and N2a cells and 5 puncta/cell in primary human fibroblasts).

Structure (SMILES)	AKT1 mRNA level [1]	AKT2 mRNA level [1]	CTSA mRNA level [1]	EEF1A1 mRNA level [1]	HSC70 mRNA level [1]	HSP40 mRNA level [1]	HSP90AA1 mRNA level [1]	HSP90AB1 mRNA level [1]	LAMP2A mRNA level [1]	NCOR1 mRNA level [1]	NFATC1 mRNA level [1]	NFE2L2 mRNA level [1]	PHLPP1 mRNA level [1]	RAB11A mRNA level [1]	RAC1 mRNA level [1]	RARa mRNA level [1]	RICTOR mRNA level [1]	CMA activation score [1]	CMA activity, mean (Fig. S2c) ([2]; concentration 0.02)	CMA activity, mean (Fig. S2c) ([2]; concentration 0.2)	other results
Cc1ccc(C2=Nc3ccc(Cl)cc3OC2)cc1 [AR7, reference compound]	1.38 and 0.89 and 1.44 and 0.86 and 1.06 and 1.51 and 1.42	1.44 and 0.97 and 1.15 and 0.87 and 1.19 and 1.60 and 1.34	1.25 and 1.34 and 1.07 and 0.82 and 1.13 and 1.21 and 1.33	1.17 and 1.49 and 1.26 and 1.78 and 0.79 and 1.54	1.32 and 1.34 and 1.36 and 1.12 and 1.37 and 1.41	0.98 and 1.05 and 1.10 and 0.85 and 0.99 and 0.72 and 1.06	1.28 and 0.87 and 0.85 and 0.56 and 0.80 and 0.78 and 0.86	0.93 and 0.89 and 0.92 and 0.63 and 0.94 and 0.80	1.15 and 1.53 and 1.46 and 1.28 and 1.31 and 1.13 and 1.27	1.16 and 1.11 and 1.26 and 0.79 and 0.85 and 0.87 and 1.01	1.04 and 0.72 and 1.34 and 0.83 and 1.03 and 1.25 and 1.28	1.81 and 0.87 and 0.79 and 0.50 and 0.68 and 0.86 and 1.01	1.42 and 1.17 and 1.27 and 2.72 and 1.10 and 1.18 and 1.28	1.10 and 1.22 and 1.00 and 0.72 and 0.93 and 1.01	1.21 and 1.55 and 1.26 and 1.08 and 1.31 and 1.54 and 1.42	0.99 and 0.33 and 1.02 and 0.95 and 0.90 and 0.86	0.52 and 1.27 and 0.85 and 0.95 and 1.43	-0.03086 and 0.1313 and 0.07179 and -0.1523	24.0456	28.2677	CMA activity, mean (Fig. S2c) ([2]; concentration 2): 18.5469; CMA activation in human cells [2]: very discrete
Clc1ccc2c(c1)OCC(c1ccc(-c3ccccc3)cc1)=N2 [CA39]	1.27 and 1.30 and 1.45 and 1.16 and 1.03 and 1.84 and 1.28	1.32 and 1.30 and 1.24 and 1.01 and 1.08 and 1.88 and 1.04	1.42 and 1.82 and 1.76 and 1.16 and 1.21 and 1.47 and 1.18	1.63 and 1.19 and 0.99 and 1.36 and 0.64 and 1.12	1.22 and 1.61 and 1.44 and 1.21 and 1.29 and 2.10 and 1.42	1.09 and 1.23 and 1.16 and 0.96 and 0.74 and 1.03	1.17 and 1.01 and 0.95 and 0.86 and 0.74 and 0.72	1.00 and 0.99 and 0.98 and 1.04 and 0.83 and 0.75	1.75 and 1.44 and 1.56 and 1.42 and 1.32 and 1.48	1.09 and 1.39 and 1.22 and 0.82 and 0.71 and 0.95 and 0.89	1.14 and 1.53 and 1.30 and 0.80 and 1.03 and 1.25 and 1.28	0.96 and 1.16 and 1.02 and 0.72 and 0.80 and 1.15 and 1.10	1.27 and 1.65 and 1.69 and 3.21 and 1.20 and 1.48 and 1.51	1.05 and 1.19 and 0.95 and 0.84 and 1.00 and 1.21 and 1.07	1.38 and 1.77 and 1.43 and 1.78 and 1.31 and 1.54 and 1.42	0.55 and 1.08 and 1.05 and 0.89 and 0.84 and 0.93 and 0.88	1.22 and 1.28 and 0.83 and 0.86 and 1.60 and 1.10	0.6107 and 0.1532 and -0.08737 and 0.08765	24.0456	28.2677	predicted CMA score compared to AR7 [1]: higher; CMA activity, mean (Fig. S2c) ([2]; concentration 2): 18.5469; CMA activation in human cells [2]: efficiently activated CMA
CC(=O)Nc1ccc(C2=Nc3ccc(Cl)cc3OC2)cc1 [CA77]	1.86 and 1.18 and 1.20 and 0.75 and 0.97 and 1.87 and 1.39	1.39 and 1.17 and 1.12 and 0.66 and 1.01 and 1.53 and 1.20	1.67 and 1.46 and 1.22 and 0.88 and 1.08 and 1.45	1.15 and 1.98 and 1.39 and 1.19 and 1.55	1.44 and 1.49 and 1.28 and 0.82 and 1.24 and 1.57	0.73 and 0.99 and 0.82 and 0.53 and 0.77 and 1.06	1.50 and 0.94 and 0.92 and 0.76 and 0.78 and 0.87 and 0.90	1.21 and 0.89 and 0.79 and 0.62 and 0.81 and 0.82 and 0.83	1.32 and 1.55 and 1.43 and 1.87 and 2.34 and 2.75 and 2.33	2.35 and 1.24 and 0.55 and 0.97 and 2.06 and 1.85	2.10 and 1.29 and 1.23 and 0.50 and 0.73 and 1.05 and 1.18	1.29 and 1.15 and 1.04 and 0.89 and 0.77 and 1.26	2.13 and 1.55 and 1.38 and 2.29 and 1.20 and 1.48 and 1.51	1.15 and 0.97 and 0.81 and 0.59 and 0.79 and 0.89 and 1.07	0.89 and 1.51 and 1.36 and 1.27 and 1.10 and 1.63 and 1.34	1.23 and 0.87 and 0.82 and 0.27 and 1.06 and 2.06 and 1.10	0.96 and 1.28 and 0.65 and 0.74 and 1.53 and 1.63	0.1487 and -0.2323 and 0.1868 and 0.1591	27.1536	22.1247	predicted CMA score compared to AR7 [1]: higher; CMA activity, mean (Fig. S2c) ([2]; concentration 2): 23.6319; CMA activity, mean (Fig. S2c) ([2]; concentration 5): 30.8194; CMA activation in human cells [2]: efficiently activated CMA
